Source: patent publication US6979686B1, “Substituted pyrazoles as p38 kinase inhibitors” (Pharmacia Corporation, priority 2001, dated 2005)
Like-named read-outs stand apart in the source and are kept apart here. One block for each molecule: values may come before it.

How the values were obtained:
[1] = system: TNF alpha, BALB/c mice injected with LPS; assay: Mouse model of LPS-induced TNF alpha production; assay type: in vivo; details: Table 6, mouse LPS, head '8 h'
Procedure: Mouse Model of LPS-induced TNF Alpha Production:
TNF alpha was induced in 10-12 week old BALB/c female mice by tail vein injection with 100 ng lipopolysaccharide (from S. Typhosa) in 0.2 ml saline. One hour later mice were bled from the retroorbital sinus and TNF concentrations in serum from clotted blood were quantified by ELISA.
Efficacy was determined at each time point as percent inhibition of serum TNF levels relative to LPS injected mice that received vehicle only.
In vivo assessment of the ability of the compounds to inhibit LPS-stimulated TNP release in the mouse is shown in the column identified as: • “Mouse LPS Model, % TNF inhib @ dose @ predose time” wherein in the dose is milligram per kilogram (mpk) administered by oral gavage and the predose time indicates the number of hours before LPS challenge when the compound is administered.

[2] = system: TNF-α, U937 human histiocytic lymphoma cell line; assay: LPS stimulation of TNF production by U937 cells; assay type: cell-based; details: for inhibition at 1 µM: U-937, @ 1.0 uM, read-out: U937 Cell % inhib @ conc.
How it was run: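 U937 cells differentiated 24 h with 20 ng/ml PMA, rested 24-48 h, used at 2 million cells/ml. Compounds in 0.1% DMSO final; LPS (E. coli, 100 ng/ml final) stimulation for 4 h at 37° C. Released TNF-α measured by ELISA; IC50 (μM).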

human p38 kinase alpha = biological target: T1, human p38 kinase alpha (Homo sapiens, UniProt Q16539); assay: p38 kinase in vitro assay, phosphorylation of biotinylated PHAS-I with 32P-ATP; assay type: biochemical
T1 construct: GST (N, cleaved yes); made in house; host or cells: E. coli DH10B

[3] = TNF production, human U937 cells stimulated with LPS, read-out: U937 Cell IC50
[4] = Homo sapiens, U-937, TNF production, human U937 cells stimulated with LPS, read-out: U937 Cell IC50
[5] = in vitro P38-alpha kinase, read-out: P38 alpha kinase IC50
[6] = in vitro P38-alpha kinase inhibition, read-out: P38 alpha kinase IC50
[7] = Homo sapiens, TNF production, U937 cells stimulated with LPS
[8] = Table 5, LPS-stimulated U937 cells, TNF-α, read-out: U937 Cell Assay IC50
[9] = activated human p38 kinase alpha, PHAS-I substrate, 50 μM unlabeled ATP, read-out: p38 kinase IC50
[10] = Homo sapiens, TNF production in human U937 cells stimulated with LPS

T1 sequence (Q16539 whole entry): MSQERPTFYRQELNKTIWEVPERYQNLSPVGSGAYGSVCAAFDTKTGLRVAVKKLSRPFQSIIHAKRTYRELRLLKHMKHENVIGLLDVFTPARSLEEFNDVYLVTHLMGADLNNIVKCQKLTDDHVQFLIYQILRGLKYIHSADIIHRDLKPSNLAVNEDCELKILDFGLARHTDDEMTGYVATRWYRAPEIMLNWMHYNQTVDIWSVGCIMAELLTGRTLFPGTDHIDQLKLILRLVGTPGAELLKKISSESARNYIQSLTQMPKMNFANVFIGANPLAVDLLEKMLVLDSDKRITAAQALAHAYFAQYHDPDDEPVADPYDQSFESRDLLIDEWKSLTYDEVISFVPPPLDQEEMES

SMILES: Cn1cc(-c2ccncc2)c(-c2ccc3c(c2)OCO3)n1 [Example A-231, 4-[3-(1,3-benzodioxol-5-y)-1-methyl-1H-pyrazol-4-yl]pyridine]
- mLPS 8 h percent inhibition ([1]; dose 30, oral gavage): 86%

SMILES: CCN(CC)CCn1cc(-c2ccnc(NCc3ccc(F)cc3)c2)c(-c2ccc(F)cc2)n1 [Example A-279, 4-[1-[2-(diethylamino)ethyl]-3-(4-fluorophenyl)-1H-pyrazol-4-yl]-N-[(4-fluorophenyl)methyl]-2-pyridinamine]
- mLPS 8 h percent inhibition ([1]; dose 30, oral gavage): 64%

SMILES: Cn1cc(-c2ccnc(F)c2)c(-c2ccc(F)c(F)c2)n1 [Example A-260, 4-[3-(3,4-difluorophenyl)-1-methyl-1H-pyrazol-4-yl]-2-fluoropyridine]
- mLPS 8 h percent inhibition ([1]; dose 30, oral gavage): 47%

SMILES: CCN(CC)CCn1cc(-c2ccnc(F)c2)c(-c2ccc(F)cc2)n1 [Example A-278, N,N-diethyl-3-(4-fluorophenyl)-4-(2-fluoro-4-pyridinyl)-1H-pyrazole-1-ethanamine]
- mLPS 8 h percent inhibition ([1]; dose 30, oral gavage): 62%

SMILES: CN(C)CCn1cc(-c2ccnc(NCc3ccc(F)cc3)c2)c(-c2ccc(F)cc2)n1 [Example A-274, 4-[1-[2-(dimethylamino)ethyl]-3-(4-fluorophenyl)-1H-pyrazol-4-yl]-N-[[4-fluorophenyl)methyl]-2-pyridinamine]
- mLPS 8 h percent inhibition ([1]; dose 30, oral gavage): 21%

SMILES: Fc1ccc(-c2n[nH]cc2-c2ccnc(F)c2)cc1 [Example A-249, 2-fluoro-4-[3-(4-fluorophenyl)-1H-pyrazol-4-yl]pyridine]
- mLPS 8 h percent inhibition ([1]; dose 30, oral gavage): 73%

SMILES: Fc1ccc(-c2n[nH]cc2-c2ccnc(NC3CCNCC3)c2)cc1 [Example A-277, 4-[3-(4-fluorophenyl)-1H-pyrazol-4-yl]-N-4-piperadinyl-2-pyridinamine]
- mLPS 8 h percent inhibition ([1]; dose 30, oral gavage): 33%

SMILES: Fc1ccc(-c2n[nH]cc2-c2ccncc2)cc1F [Example A-239, 4-[3-(3,4-difluorophenyl)-1H-pyrazol-4-yl]pyridine]
- mLPS 8 h percent inhibition ([1]; dose 30, oral gavage): 51%

SMILES: Cn1cc(-c2ccncc2)c(-c2ccc(F)cc2)n1 [Example A-212, 4-[3-(4-fluorophenyl)-1-methyl-1H-pyrazol-4-yl]pyridine]
- mLPS 8 h percent inhibition ([1]; dose 10, oral gavage): 20%

SMILES: CCN(CC)CCn1cc(-c2ccncc2)c(-c2ccc(F)cc2)n1 [Example A-284, N,N-diethyl-3-(4-fluorophenyl)-4-(4-pyridinyl)-1H-pyrazole-1-ethanamine]
- mLPS 8 h percent inhibition ([1]; dose not given, oral gavage): −1%

SMILES: Fc1cc(-c2c[nH]nc2-c2ccc(Cl)cc2)ccn1 [Example A-240]
- mLPS 8 h percent inhibition ([1]; dose 30, oral gavage): 78%

SMILES: Cn1cc(-c2ccncc2)c(-c2ccc(C(F)(F)F)cc2)n1 [Example A-252, 4-[1-methyl-3-[4-(trifluoromethyl)phenyl]-1H-pyrazol-4-yl]pyridine]
- mLPS 8 h percent inhibition ([1]; dose 30, oral gavage): 48%

SMILES: Cn1cc(-c2ccncc2)c(-c2ccc(I)cc2)n1 [Example A-251, 4-[3-(4-iodophenyl)-1-methyl-1H-pyrazol-4-yl]pyridine]
- mLPS 8 h percent inhibition ([1]; dose not given, oral gavage): 32%

SMILES: Brc1ccc(-c2n[nH]cc2-c2ccncc2)cc1 [Example A-241, 4-[3-(4-bromophenyl)-1H-pyrazol-4-yl]pyridine]
- mLPS 8 h percent inhibition ([1]; dose 30, oral gavage): 79%

SMILES: Clc1ccc(-c2n[nH]cc2-c2ccncc2)cc1Cl [Example A-297, 4-[3-(3,4-dichlorophenyl)-1H-pyrazol-4-yl]pyridine]
- mLPS 8 h percent inhibition ([1]; dose 30, oral gavage): 89%

SMILES: OCCn1ncc(-c2ccnc(NCc3ccc(F)cc3)c2)c1-c1ccc(F)cc1 [Example A-290, 5-(4-fluorophenyl)-4-[2-[[(4-fluorophenyl)methyl]amino]-4-pyridinyl]-1H-pyrazole-1-ethanol]
- mLPS 8 h percent inhibition ([1]; dose 30, oral gavage): 4%

SMILES: Cn1cc(-c2ccncc2)c(-c2ccc(F)c(F)c2)n1 [Example A-242, 4-[3-(3,4-difluorophenyl)-1-methyl-1H-pyrazol-4-yl]pyridine]
- mLPS 8 h percent inhibition ([1]; dose 30, oral gavage): 95%

SMILES: Fc1ccc(-c2nn(CCN3CCOCC3)cc2-c2ccncc2)cc1 [Example A-216, 4-[2-[3-(4-fluorophenyl)-4-(4-pyridinyl)-1H-pyrazol-1-yl]ethyl]morpholine]
- mLPS 8 h percent inhibition ([1]; dose 30, oral gavage): 27%

SMILES: C#CCn1cc(-c2ccncc2)c(-c2ccc(F)cc2)n1 [Example A-294, 4-[3-(4-fluorophenyl)-1-(2-propynyl)-1H-pyrazol-4-yl]pyridine]
- mLPS 8 h percent inhibition ([1]; dose 30, oral gavage): 61%

SMILES: N#Cc1cc(-c2c[nH]nc2-c2ccc(F)cc2)ccn1 [Example A-215, 4-[3-(4-fluorophenyl)-1H-pyrazol-4-yl]-2-pyridinecarbonitrile]
- mLPS 8 h percent inhibition ([1]; dose 30, oral gavage): 38%

SMILES: OCCCNc1cc(-c2c[nH]nc2-c2ccc(F)cc2)ccn1 [Example A-282, 3-[[4-(3-(4-fluorophenyl)-1H-pyrazol-4-yl]-2-pyridinyl]amino]-1-propanol]
- mLPS 8 h percent inhibition ([1]; dose 30, oral gavage): 30%

SMILES: C#CCNc1[nH]nc(-c2ccc(F)cc2)c1-c1ccncc1 [Example A-288, 5-(4-fluorophenyl)-N-2-propynyl-4-(4-pyridinyl)-1H-pyrazol-3-amine]
- mLPS 8 h percent inhibition ([1]; dose 30, oral gavage): 40%

SMILES: C#CCn1ncc(-c2ccncc2)c1-c1ccc(F)cc1 [Example A-295, 4-[5-(4-fluorophenyl)-1-(2-propynyl)-1H-pyrazol-4-yl]pyridine]
- mLPS 8 h percent inhibition ([1]; dose 30, oral gavage): 94%

- IC50 [2, 3]: > 10000 nM
- P38 alpha kinase % inhib @ conc. (human p38 kinase alpha; @ 10.0 uM): 45.0% @
SMILES: CCOC(=O)CC[C@H](NC(=O)Cn1nc(-c2ccc(F)cc2)c(-c2ccncc2)c1C)C(=O)OCC [Example B-2360]

- IC50 [2, 4]: > 1000 nM
- IC50 (human p38 kinase alpha; [5]): 20 nM
SMILES: O=C(NCCCc1[nH]nc(-c2ccc(F)cc2)c1-c1ccncc1)NCCCn1ccnc1 [Example B-1297]

- IC50 [2, 4]: 370 nM
- IC50 (human p38 kinase alpha; [5]): 570 nM
SMILES: O=C(c1cccs1)N1CCC(c2[nH]nc(-c3ccc(F)cc3)c2-c2ccncc2)CC1 [Example B-1384]

- P38 alpha kinase % inhib @ conc. (human p38 kinase alpha; @ 1.0 uM): 83% @
SMILES: O=C(NCc1[nH]nc(-c2ccc(F)cc2)c1-c1ccncc1)c1cccc(CCl)c1 [Example B-0065]
- U937 Cell % inhib @ conc. ([2]; @ 1.0 uM, TNF production, U937 cells stimulated with LPS): 21.0% @

- IC50 ([2]; TNF production in human U937 cells stimulated with LPS, read-out: U937 Cell IC50): 840 nM
- IC50 (human p38 kinase alpha; [6]): 2230 nM
SMILES: CC(NC(=O)NCc1ccccc1)c1[nH]nc(-c2ccc(F)cc2)c1-c1ccncc1 (stereo not shown) [Example B-0580]

- IC50 [2, 4]: > 1000 nM
- IC50 (human p38 kinase alpha; [6]): 890 nM
SMILES: CNC(=O)CCC(NS(=O)(=O)Cc1ccccc1)c1[nH]nc(-c2ccc(F)cc2)c1-c1ccncc1 (stereo not shown) [Example B-0876]

- U937 Cell IC50, uM or % inhib @ conc. (uM): % inhib ([2]; @ 10.0 uM, TNF production, U937 cells stimulated with LPS): 13.0% @
- P38 alpha kinase IC50, uM or % inhib @ conc. (uM): % inhib (human p38 kinase alpha; @ 100.0 uM): 26% @
SMILES: Cc1c(-c2ccncc2)c(-c2ccc(F)cc2)nn1CC(=O)N1CCCCC1CCN1CCCCC1 (stereo not shown) [Example B-2411]

- IC50 [2, 4]: 250 nM
- IC50 (human p38 kinase alpha; [5]): 10 nM
SMILES: CCS(=O)(=O)N1CCC(c2[nH]nc(-c3ccc(F)cc3)c2-c2ccncc2)CC1 [Example B-1375]

- IC50 (human p38 kinase alpha; [6]): 30 nM
SMILES: Cc1c(Cl)cccc1S(=O)(=O)NCCc1[nH]nc(-c2ccc(F)cc2)c1-c1ccncc1 [Example B-1075]
- inhibition at 1 µM [2, 7]: 29%

- IC50 (human p38 kinase alpha; [6]): 1640 nM
SMILES: O=C(NC(Cc1ccccc1)c1[nH]nc(-c2ccc(F)cc2)c1-c1ccncc1)C1CCCC1 (stereo not shown) [Example B-0820]
- inhibition at 1 µM [2, 7]: 3%

- IC50 [2, 3]: 3630 nM
- P38 alpha kinase % inhib @ conc. (human p38 kinase alpha; @ 1.0 uM): 42.0% @
SMILES: O=S(=O)(NCc1[nH]nc(-c2ccc(F)cc2)c1-c1ccncc1)c1ccc(OC(F)F)cc1 [Example B-0143]

- IC50 [2, 8]: 329 nM
- IC50 (human p38 kinase alpha; [9]): < 100 nM
SMILES: Cc1[nH]nc(-c2ccc(F)c(F)c2)c1-c1ccncc1 [Example A-46]

- IC50 (human p38 kinase alpha; [6]): 1040 nM
SMILES: CC(NC(=O)c1ccc(F)c(F)c1F)c1[nH]nc(-c2ccc(F)cc2)c1-c1ccncc1 (stereo not shown) [Example B-0546]
- inhibition at 1 µM [2, 10]: 18%

- P38 alpha kinase % inhib @ conc. (human p38 kinase alpha; @ 10.0 uM): 58.0% @
SMILES: COC(=O)[C@H](CCSC)NC(=O)Cn1nc(-c2ccc(F)cc2)c(-c2ccncc2)c1C [Example B-2324]
- U937 Cell % inhib @ conc. ([2]; @ 10.0 uM, TNF production, LPS-stimulated U937 cells): 36.0% @

- IC50 (human p38 kinase alpha; [6]): 2840 nM
SMILES: CC(NC(=O)c1cccc(Br)c1)c1[nH]nc(-c2ccc(F)cc2)c1-c1ccncc1 (stereo not shown) [Example B-0539]
- inhibition at 1 µM [2, 10]: 21%

- IC50 [2, 8]: 522 nM
- IC50 (human p38 kinase alpha; [9]): 1800 nM
SMILES: Cc1[nH]nc(-c2ccc(C(F)(F)F)cc2)c1-c1ccncc1 [Example A-48]

- IC50 (human p38 kinase alpha; [6]): 2570 nM
SMILES: Cc1ccc(S(=O)(=O)NC(Cc2ccccc2)C(=O)NC(C)c2[nH]nc(-c3ccc(F)cc3)c2-c2ccncc2)cc1 (stereo not shown) [Example B-0560]
- inhibition at 1 µM [2, 10]: 31%

- IC50 (human p38 kinase alpha; [6]): 1170 nM
SMILES: CCS(=O)(=O)NC(CCC(=O)NC)c1[nH]nc(-c2ccc(F)cc2)c1-c1ccncc1 (stereo not shown) [Example B-0877]
- inhibition at 1 µM [2, 7]: 13%

- IC50 (human p38 kinase alpha; [6]): 720 nM
SMILES: O=C(NCCc1[nH]nc(-c2ccc(F)cc2)c1-c1ccncc1)c1cccc(Cl)c1Cl [Example B-1132]
- inhibition at 1 µM [2, 7]: 11%
